This data set in a line: Particle size of mometasone furoate before milling, after roller milling and after spray drying. It is filed as physicochemical. Conditions: before roller milling. The protocol: Spray Drying Conditions: Inlet temperature=110° C.; Outlet temperature=54° C.; Aspirator=100%; Pump rate=20%; Q flow=50%; Nozzle cap=1.5 mm.
Roller Milling Conditions: Mometasone Furoate—initial median size—19.7 μm. Samples are milled in 250 mL jars for 3 hours with 0.5 mm YTZ media. Particle size diameter (PSD), after 3 hours milling, is measured in water. After milling, the suspension is extracted (needle 22G) from jars and mixed according the table and procedure shown. Procedure for Preparation of the Spray Drying Suspensions: The amounts of HPMC, MCC and H2O used is based on the extracted quantity of the suspension (Table II). HPMC is added as a solution prepared in H2O. HPMC solution is added to the extracted suspension and mixed for 15 minutes. MCC (Grade PH-F20JP, 20 μm) is added and mixed for 15 minutes. Particle size diameter (PSD) is measured after spray drying by dispersing the spray-dried powder in a liquid such as isopropyl palmitate or silicone oil, which are non-solvents for the components and will not alter particle size or cause disintegration of the composite particle. Materials: Mometasone Furoate (Hovione, East Windsor, N.J.); Citric acid, anhydrous (Fisher, Hampton, N.H.); Benzalkonium chloride (Fluka, St. Louis, Mo.); Microcrystalline cellulose (AsahKasei, Glenview, Ill.); Hydroxypropylmethyl cellulose (Colorcon, Harleysville, Pa.). […]

The compound `C[C@@H]1C[C@H]2[C@@H]3CCC4=CC(=O)C=C[C@]4(C)[C@@]3(Cl)[C@@H](O)C[C@]2(C)[C@@]1(OC(=O)c1ccco1)C(=O)CCl` [Mometasone Furoate, (11β,16α)-9,21-dichloro-11-hydroxy-16-methyl-3,20-dioxopregna-1,4-dien-17-yl 2-furoate] showed an initial median size of 19.7 μm.

The values are drawn from patent publication US10918601B2, “Spray-dried pharmaceutical compositions comprising active agent nanoparticles” (Besins Healthcare Luxembourg SARL, priority 2013, dated 2021).
